Read-outs that look alike come from different tables or passages of the source.
Legend:
SKBR3 cells = test: Cellular growth inhibition (sulforhodamine B); assay type: cell-based, Human; settings: Table 3
[1] = Steady state radiolytic reduction by the CO2.− radical with HPLC-MS; assay type: physicochemical
[2] = Plasma and A431 tumour pharmacokinetics of compounds 42 and 161
[3] = HPLC-MS at 0.95 reducing equivalents

Row | Structure (SMILES) | SKBR3 Deact. (SKBR3 cells) [fold] | SKBR3 HCR (SKBR3 cells) [fold] | IC50 (SKBR3 cells; 24 hour exposure entirely oxic, read-out: Cellular Growth Inhibition IC50 SKBR3 Oxic) [nM] | IC50 (SKBR3 cells; first 4 hours anoxic, read-out: Cellular Growth Inhibition IC50 SKBR3 Anoxic) [nM] | Effector release/Prodrug loss ([1]; 0.95 reducing equivalents) | Detection of MNA (methyl nitroaromatic) ([1]; HPLC-MS) | % Loss of prodrug [1, 3] [%] | % Release of effector [1, 3] [%] | release of effector following 1-electron reduction ([1]; steady state radiolysis, HPLC-MS) | stable tumour tissue concentration ([2]; prodrug 42, out to 72 h) [µmol/kg] | tumour AUC0-72h ([2]; prodrug 42 at 100 umol/kg ip, A431 tumour) [µmol·h/kg] | plasma AUC fold greater than for administration of inhibitor 161 ([2]; ~75% of q3dx4 MTD each) [fold] | solubility (physchem; aqueous buffer) [µM] | solubility (physchem; water) [µM]
1 | Cn1cnc([N+](=O)[O-])c1C[N+](C)(C)C/C=C/C(=O)Nc1ccc2ncnc(Nc3cccc(Br)c3)c2c1.[Br-] [Compound 20, (2E)-4-{[4-(3-bromoanilino)-6-quinazolinyl]amino}-N,N-dimethyl-N-[(1-methyl-4-nitro-1H-imidazol-5-yl)methyl]-4-oxo-2-buten-1-ammonium bromide] | 49 | 18.1 | 3930 | 217 | 1.00 | Yes | 55 | 55 | released effector (compound 11) detected | – | – | – | – | –
2 | Cn1cnc([N+](=O)[O-])c1C[N+](C)(C)C/C=C/C(=O)Nc1cc2c(Nc3ccc(F)c(Br)c3)ncnc2cn1 [Compound 42, (2E)-4-{[4-(3-bromo-4-fluoroanilino)pyrido[3,4-d]pyrimidin-6-yl]amino}-N,N-dimethyl-N-[(1-methyl-4-nitro-1H-imidazol-5-yl)methyl]-4-oxo-2-buten-1-ammonium bromide] | – | – | – | – | – | – | – | – | – | ~30 | 2821 | ~27 | 129 | > 1160
